The nature of series [1]: The drug is tested on Z-024 corresponding to pig gut metagenome with ENA study accession number: PRJEB37062 and ENA sample accession number: ERS12561823 for biotransformation under anaerobic condition. The drug concentrations were measured over 9 timepoints collected between 0 and 24 hours of incubation by liquid-chromatography-coupled mass spectrometry (LC–MS). Conditions: 2 µM.

Series [2] is described as follows: The drug is tested on Z-017 corresponding to mouse gut metagenome with ENA study accession number: PRJEB37062 and ENA sample accession number: ERS12561816 for biotransformation under anaerobic condition. The drug concentrations were measured over 9 timepoints collected between 0 and 24 hours of incubation by liquid-chromatography-coupled mass spectrometry (LC–MS). Conditions: 2 µM.

A short description of series [3]: The drug is tested on Z-010 corresponding to metagenome with ENA study accession number: PRJEB37062 and ENA sample accession number: ERS12561810 for biotransformation under anaerobic condition. The drug concentrations were measured over 9 timepoints collected between 0 and 24 hours of incubation by liquid-chromatography-coupled mass spectrometry (LC–MS). Conditions: 2 µM.

The nature of series [4]: The drug is tested on Z-009 corresponding to pig gut metagenome with ENA study accession number: PRJEB37062 and ENA sample accession number: ERS12561809 for biotransformation under anaerobic condition. The drug concentrations were measured over 9 timepoints collected between 0 and 24 hours of incubation by liquid-chromatography-coupled mass spectrometry (LC–MS). To be noted: 2 µM.

The nature of series [5]: The drug is tested on Z-001 corresponding to mouse gut metagenome with ENA study accession number: PRJEB37062 and ENA sample accession number: ERS12561801 for biotransformation under anaerobic condition. The drug concentrations were measured over 9 timepoints collected between 0 and 24 hours of incubation by liquid-chromatography-coupled mass spectrometry (LC–MS). To be noted: 2 µM.

Series [6] is described as follows: The drug is tested on WLS-350 corresponding to human gut metagenome with ENA study accession number: PRJEB37062 and ENA sample accession number: ERS12561789 for biotransformation under anaerobic condition. The drug concentrations were measured over 9 timepoints collected between 0 and 24 hours of incubation by liquid-chromatography-coupled mass spectrometry (LC–MS). To be noted: 2 µM.

Series [7] in a line: The drug is tested on WLS-220 corresponding to human gut metagenome with ENA study accession number: PRJEB37062 and ENA sample accession number: ERS12561769 for biotransformation under anaerobic condition. The drug concentrations were measured over 9 timepoints collected between 0 and 24 hours of incubation by liquid-chromatography-coupled mass spectrometry (LC–MS). To be noted: 2 µM.

Series [8] is described as follows: The drug is tested on WLS-086 corresponding to human gut metagenome with ENA study accession number: PRJEB37062 and ENA sample accession number: ERS12561752 for biotransformation under anaerobic condition. The drug concentrations were measured over 9 timepoints collected between 0 and 24 hours of incubation by liquid-chromatography-coupled mass spectrometry (LC–MS). Conditions: 2 µM.

Series [9] in a line: The drug is tested on WLS-073 corresponding to human gut metagenome with ENA study accession number: PRJEB37062 and ENA sample accession number: ERS12561749 for biotransformation under anaerobic condition. The drug concentrations were measured over 9 timepoints collected between 0 and 24 hours of incubation by liquid-chromatography-coupled mass spectrometry (LC–MS). To be noted: 2 µM.

Series [10] is described as follows: The drug is tested on WLS-052 corresponding to human gut metagenome with ENA study accession number: PRJEB37062 and ENA sample accession number: ERS12561747 for biotransformation under anaerobic condition. The drug concentrations were measured over 9 timepoints collected between 0 and 24 hours of incubation by liquid-chromatography-coupled mass spectrometry (LC–MS). Conditions: 2 µM.

Series [11] in a line: The drug is tested on WLS-038 corresponding to human gut metagenome with ENA study accession number: PRJEB37062 and ENA sample accession number: ERS12561745 for biotransformation under anaerobic condition. The drug concentrations were measured over 9 timepoints collected between 0 and 24 hours of incubation by liquid-chromatography-coupled mass spectrometry (LC–MS). To be noted: 2 µM.

The conditions of series [12]: human gut metagenome, 24 h, 2 µM.
For series [13] the following is noted: human gut metagenome, 24 h, 2 µM. The source holds these as a separate data set.
The conditions of series [14]: human gut metagenome, 24 h, 2 µM. This is another data set of the same source.
The conditions of series [15]: human gut metagenome, 24 h, 2 µM. The source holds these as a separate data set.
For series [16] the following is noted: human gut metagenome, 24 h, 2 µM. The source holds these as a separate data set.
For series [17] the following is noted: human gut metagenome, 24 h, 2 µM. This is another data set of the same source.
For series [18] the following is noted: human gut metagenome, 24 h, 2 µM. The source holds these as a separate data set.
For series [19] the following is noted: human gut metagenome, 24 h, 2 µM. This is another data set of the same source.
The conditions of series [20]: human gut metagenome, 24 h, 2 µM. This is another data set of the same source.

Molecules are shown by their SMILES.
Note: call rule not given here.

For `O=C(Nc1ccccc1)OCC(CN1CCCCC1)OC(=O)Nc1ccccc1` (stereo not given) [DIPERODON], the “Bacterial Biotransformation” value in series [1] is on record as “Compound metabolized”; in series [2], “Compound NOT metabolized”; in series [3], “Compound metabolized”; in series [4] it was “Compound metabolized”; in [5], “Compound NOT metabolized”; in series [6], “Compound metabolized”. The “Bacterial Biotransformation” value is on record as “Compound metabolized” in series [7]; “Compound metabolized” in series [8]; “Compound NOT metabolized” in [9]; “Compound NOT metabolized” in series [10]; “Compound NOT metabolized” in series [11]; “Compound NOT metabolized” in [12]. The “Bacterial Biotransformation” value in [13] is “Compound NOT metabolized”; in [14], “Compound metabolized”; in [15], “Compound metabolized”; in [16] it was “Compound NOT metabolized”; in [17], “Compound NOT metabolized”; in series [18] it was “Compound metabolized”. Also, the “Bacterial Biotransformation” value in series [19] is “Compound metabolized”; in series [20], “Compound NOT metabolized”.
Turning to `CC(C)N(CCC(C(N)=O)(c1ccccc1)c1ccccn1)C(C)C.O=P(O)(O)O` (stereo not given) [DISOPYRAMIDE PHOSPHATE], the “Bacterial Biotransformation” value in series [1], in series [2], in series [3], in series [4], in [5] and in series [6] was “Compound NOT metabolized” throughout. Further, the “Bacterial Biotransformation” value in series [7] was “Compound NOT metabolized”; in [8] it was “Compound metabolized”; in [9], “Compound NOT metabolized”; in [10] it was “Compound NOT metabolized”; in [11], “Compound NOT metabolized”; in [12], “Compound NOT metabolized”. In addition, the “Bacterial Biotransformation” value is “Compound NOT metabolized” in series [13]; “Compound NOT metabolized” in series [14]; “Compound NOT metabolized” in series [15]; “Compound NOT metabolized” in series [16]; “Compound NOT metabolized” in series [17]; “Compound metabolized” in series [18]. Besides, the “Bacterial Biotransformation” value is “Compound metabolized” in series [19] and “Compound NOT metabolized” in series [20].
In the case of `C[C@@H](CO)NC(=O)[C@@H]1C=C2c3cccc4[nH]cc(c34)C[C@H]2N(C)C1.O=C(O)/C=C\C(=O)O` [ERGONOVINE MALEATE], the “Bacterial Biotransformation” value in series [1] was “Compound NOT metabolized”; in series [2] it was “Compound NOT metabolized”; in [3] it was “Compound NOT metabolized”; in [4], “Compound NOT metabolized”; in series [5] it was “Compound NOT metabolized”; in series [6], “Compound metabolized”. For the same compound, the “Bacterial Biotransformation” value is reported as “Compound NOT metabolized” in series [7]; “Compound metabolized” in [8]; “Compound metabolized” in series [9]; “Compound metabolized” in series [10]; “Compound metabolized” in [11]; “Compound metabolized” in series [12]. The “Bacterial Biotransformation” value in series [13] is recorded as “Compound NOT metabolized”; in series [14], “Compound metabolized”; in series [15], “Compound NOT metabolized”; in [16] it was “Compound NOT metabolized”; in series [17] it was “Compound metabolized”; in series [18], “Compound metabolized”. Besides, the results for the “Bacterial Biotransformation” value in series [19] and in [20] were “Compound NOT metabolized” and “Compound metabolized”, respectively.
Turning to `CCN(CC)C(C)CN1c2ccccc2Sc2ccccc21` (stereo not given) [ETHOPROPAZINE], the “Bacterial Biotransformation” value in series [1] was “Compound metabolized”; in series [2], “Compound NOT metabolized”; in [3], “Compound metabolized”; in [4], “Compound metabolized”; in series [5], “Compound metabolized”; in series [6] it was “Compound metabolized”. Also, the “Bacterial Biotransformation” value in series [7] is recorded as “Compound metabolized”; in [8], “Compound metabolized”; in [9], “Compound metabolized”; in series [10], “Compound metabolized”; in series [11], “Compound NOT metabolized”; in series [12] it was “Compound metabolized”. The “Bacterial Biotransformation” value is reported as “Compound metabolized” in series [13]; “Compound metabolized” in series [14]; “Compound metabolized” in series [15]; “Compound NOT metabolized” in series [16]; “Compound metabolized” in series [17]; “Compound metabolized” in series [18]. For the same compound, the “Bacterial Biotransformation” value in series [19] and in [20] was “Compound metabolized” in each case.
Turning to `Cc1nc(-c2ccc(OCC(C)C)c(C#N)c2)sc1C(=O)O` [FEBUXOSTAT], the “Bacterial Biotransformation” value was “Compound metabolized” in series [1]; “Compound NOT metabolized” in [2]; “Compound metabolized” in series [3]; “Compound NOT metabolized” in [4]; “Compound NOT metabolized” in series [5]; “Compound metabolized” in series [6]. The “Bacterial Biotransformation” value was “Compound metabolized” in series [7]; “Compound metabolized” in series [8]; “Compound NOT metabolized” in [9]; “Compound metabolized” in series [10]; “Compound metabolized” in series [11]; “Compound metabolized” in series [12]. Further, the “Bacterial Biotransformation” value in series [13], in [14], in [15], in series [16], in series [17] and in series [18] was “Compound metabolized” in each case. The “Bacterial Biotransformation” value in series [19] and in series [20] was “Compound metabolized” throughout.

The values above are taken from ChEMBL document CHEMBL5724914, “Linking interpersonal differences in gut microbiota composition and drug biotransformation activity” (2024).
